Viability data for 1 molecule are collected here from patent publication US9835558B2, “Aggregation-induced emission luminogen having an peptide sequence and its uses thereof” (priority 2015, dated 2017).

A short description of the data set: cyto-toxicity by MTT assay. It is filed as cell-based. Particulars: human, MCF-7 cells; TR4 0.05-50 μM, incubation for 30 min, MCF-7, data not shown; read-out: cellular viability. A general note: Tetrazolium dyes change colour on reduction, which living cells bring about.

Residues, ends and D or L forms follow the SMILES beside them. *: point of attachment. X1 = O=C(COc1ccc(C(=C(c2ccccc2)c2ccccc2)c2ccccc2)cc1)*; Palmitoyl = CCCCCCCCCCCCCCCC(=O)* Bounds are passed on as bounds.

A word on the viability: it is a per cent measure of how many cells are alive, often set against a control. In the case of `CCCCCCCCCCCCCCCC(=O)NCCCC[C@H](NC(=O)COc1ccc(C(=C(c2ccccc2)c2ccccc2)c2ccccc2)cc1)C(=O)N[C@@H](CCCNC(=N)N)C(=O)N[C@@H](CCCNC(=N)N)C(=O)N[C@@H](CCCNC(=N)N)C(=O)N[C@@H](CCCNC(=N)N)C(N)=O` [TR4] (X1-K(Palmitoyl)RRRR-NH2), the viability at 0.5 h was above 80%.
